In patent US20260193296A1 (priority 2023, published 2026):
Read-outs that look alike come from different tables or passages of the source. Ends that are not written are not given here.

Experiments:
CLas cells = type: cell-based, Candidatus Liberibacter asiaticus (CLas); details: for lysis of Huanglongbing pathogens: summary statement, demonstrated by experiments
[1] = test system: Huanglongbing pathogen CLas; type: cell-based, Candidatus Liberibacter asiaticus (CLas); details: for CLas titer in infected leaf midribs: 1 μM artificially synthesized peptide; for number of pathogens in citrus infected with Huanglongbing: summary statement, demonstrated by experiments
[2] = test system: Huanglongbing pathogen CLas; details: for IC50: read-out: CLas half inhibitory concentration (IC50), treated for 48 hours, FIG. 4C
Huanglongbing pathogens = type: in vivo, citrus (Chunmi orange); details: field, whole plant, same injection method, two months after treatment; FIG. 6
[3] = test system: Huanglongbing pathogen CLas; type: cell-based, Candidatus Liberibacter asiaticus (CLas); details: for inhibitory effect on CLas after heat pretreatment: used at 1 μM, 48 h, compared with BSA, FIG. 4D
[4] = test system: Huanglongbing pathogen CLas; type: in vivo, Candidatus Liberibacter asiaticus (CLas)

| Sequence | lysis of Huanglongbing pathogens (CLas cells) | CLas titer in infected leaf midribs ([1]; 48 h, FIG. 4A) | number of pathogens in citrus infected with Huanglongbing [1] | further results |
| --- | --- | --- | --- | --- |
| DPMIWGYVMLNDRLSK [AMP9-16, truncated peptide of AMP9] | promote lysis of Huanglongbing pathogens | significantly reduce the CLas titer | reduce the number of pathogens | – |
| MKKVKNIFHKIANADPMIWGYVMLSESK [AMP3] | promote lysis of Huanglongbing pathogens | significantly reduce the CLas titer | reduce the number of pathogens | IC50 [2]: 52.1 µM |
| MKKVKNIFHKIANADPMIWGYVMLNDRLSK [AMP9] | promote lysis of Huanglongbing pathogens | significantly reduce the CLas titer | reduce the number of pathogens | – |
| DPMIWGYVMLSESKDPMIWGYVMLNDSK [AMP-2β, dimer of β-sheet fragments obtained by prokaryotic expression and purification] | promote lysis of Huanglongbing pathogens | – | reduce the number of pathogens | – |
| MKKVKNIFHKIANA [AMP-α, contains only an α-helix fragment] | – | not able to change the CLas titer | – | – |
| MKKVKNIFHKIANADPMIWGYVML [AMP3-24, truncated peptide of AMP3] | promote lysis of Huanglongbing pathogens | – | reduce the number of pathogens | – |
| DPMIWGYVMLSESK [AMP3-14, DPMIWGYVMLSESK] | promote lysis of Huanglongbing pathogens | significantly reduce the CLas titer | reduce the number of pathogens | destruction of pathogenic cells compared with AMP3 (transmission electron microscope) (CLas cells; 1 μM, 24 hours, FIG. 7): better effect on the destruction of pathogenic cells; effectiveness in reducing the CLas titer compared with AMP3 ([2]; from IC50 values at 48 hours): more effective in reducing the CLas titer; IC50 [2]: 1 µM; growth of new citrus leaves (Huanglongbing pathogens): significantly promote the growth of new citrus leaves; thermal stability ([3]; 35° C. and 45° C. for 20 hours): good thermal stability; inhibitory effect on CLas after heat pretreatment ([3]; pretreated at 35° C. for 20 hours): still significant; inhibitory effect on CLas after heat pretreatment ([3]; pretreated at 45° C. for 20 hours): still significant; symptoms of yellowing in leaves of infected plants ([4]; 1 μM solution, continuous trunk infusion, 6 months, FIG. 5B): disappeared; Ct value of CLas in infected plants ([4]; 1 μM solution, continuous trunk infusion, 6 months, FIG. 5C): not significantly different from that of healthy plants; Ct value of CLas in treated plants after removal of treatment ([4]; treatment removed after 7 months, titer monitored continuously): still not significantly different from that of healthy plants; CLas titer in infected leaf veins ([1]; 100 nM artificially synthesized peptide, 48 h, FIG. 4A): significantly reduce the CLas titer |
| DPMIWGYVMLNDSK [AMP-β, variant containing conserved β-sheet region; synthesized and also made by prokaryotic expression] | promote lysis of Huanglongbing pathogens | significantly reduce the CLas titer | reduce the number of pathogens | – |
